Molecules are shown by their SMILES.

The nature of one data set: logP determination. It is filed as physicochemical. The conditions noted are these: Table 1 logP.
On to `C=C(Br)CN(CCCF)c1c(-c2ccc(C(F)(F)F)cc2F)c(Cl)nc2ncnn12` [Example 44], for which the logP (in general, the decadic logarithm of the partition coefficient of the neutral form, usually between octanol and water) is reported as 3.85.

`C=C(Cl)CN(CCCF)c1c(-c2cc(C(F)(F)F)ccc2Cl)c(Cl)nc2ncnn12` [Example 49] yielded a logP of 3.84.

In turn, `COC(CN(CCCF)c1c(-c2cc(C(F)(F)F)ccc2Cl)c(Cl)nc2ncnn12)OC` [Example 17] displayed a logP of 3.54.

`CC(=O)CN(CCCF)c1c(-c2cccc3c2OC(F)(F)O3)c(Cl)nc2ncnn12` [Example 39] gave a logP of 2.80.

As for `COC(=O)CN(CCCF)c1c(-c2c(F)cc(F)cc2C(F)(F)F)c(Cl)nc2ncnn12` [Example 74], the logP came to 2.92.

`COC(CN(CCCF)c1c(-c2ccc(C(F)(F)F)c(F)c2F)c(Cl)nc2ncnn12)OC` [Example 24] showed a logP of 3.55.

In turn, `CC(=O)CN(CCCF)c1c(-c2cccc(C(F)(F)F)c2Cl)c(Cl)nc2ncnn12` [Example 38] displayed a logP of 3.01.

The molecule `C=C(Br)CN(CCCF)c1c(-c2cc(SC(F)(F)F)ccc2Cl)c(Cl)nc2ncnn12` [Example 45] gave a logP of 4.36.

On to `COC(=O)CN(CCCF)c1c(-c2cc(C(F)(F)F)ccc2Cl)c(Cl)nc2ncnn12` [Example 10], for which the logP is 3.23.

In turn, `COC(CN(CCCF)c1c(-c2cccc3c2OC(F)(F)O3)c(Cl)nc2ncnn12)OC` [Example 23] gave a logP of 3.24.

In turn, `C=C(Cl)CN(CCCF)c1c(-c2ccc(C(F)(F)F)c(F)c2F)c(Cl)nc2ncnn12` [Example 56] returned a logP of 3.86.

In the case of `COC(CN(CCCF)c1c(-c2cc(SC(F)(F)F)ccc2Cl)c(Cl)nc2ncnn12)OC` [Example 21], the log partition coefficient (logP) was found to be 3.90.

Consider `CN(C)C(=O)CN(CCCF)c1c(-c2cc(C(F)(F)F)ccc2Cl)c(Cl)nc2ncnn12` [Example 2], for which the log partition coefficient (logP) is listed as 2.77.

As for `COC(=O)CN(CCCF)c1c(-c2ccc(C(F)(F)F)cc2F)c(Cl)nc2ncnn12` [Example 13], the logP is 3.17.

Turning to `CCOC(CN(CCCF)c1c(-c2cccc(C(F)(F)F)c2Cl)c(Cl)nc2ncnn12)OCC` [Example 30], the logP was 4.00.

`C=C(Br)CN(CCCF)c1c(-c2cc(C(F)(F)F)ccc2Cl)c(Cl)nc2ncnn12` [Example 41] gave a logP of 3.92.

For the molecule `CC(=O)CN(CCCF)c1c(-c2cc(C(F)(F)F)ccc2Cl)c(Cl)nc2ncnn12` [Example 33], the log partition coefficient (logP) stood at 3.07.

With `COC(CN(CCCF)c1c(-c2cccc(C(F)(F)F)c2Cl)c(Cl)nc2ncnn12)OC` [Example 22], the logP came out at 3.42.

`COC(=O)CN(CCCF)c1c(-c2cccc(C(F)(F)F)c2Cl)c(Cl)nc2ncnn12` [Example 15] returned a logP of 3.17.

Turning to `COC(=O)CN(CCCF)c1c(-c2c(Cl)c(F)cc(C(F)(F)F)c2Cl)c(Cl)nc2ncnn12` [Example 12], the log partition coefficient (logP) stood at 3.58.

`CN(C)C(=O)CN(CCCF)c1c(-c2ccc(C(F)(F)F)c(F)c2F)c(Cl)nc2ncnn12` [Example 9] came in with a lipophilicity (logP) of 2.86.

For `C=C(Br)CN(CCCF)c1c(-c2ccc(C(F)(F)F)c(F)c2F)c(Cl)nc2ncnn12` [Example 48], the logP came to 3.94.

For the molecule `C=C(Br)CN(CCCF)c1c(-c2cccc3c2OC(F)(F)O3)c(Cl)nc2ncnn12` [Example 47], the logP is recorded as 3.69.

Consider `C=C(Cl)CN(CCCF)c1c(-c2c(Cl)c(F)cc(C(F)(F)F)c2Cl)c(Cl)nc2ncnn12` [Example 51], for which the lipophilicity (logP) is given as 4.19.

`CCOC(CN(CCCF)c1c(-c2cc(C(F)(F)F)ccc2Cl)c(Cl)nc2ncnn12)OCC` [Example 25] gave a log partition coefficient (logP) of 4.10.

Turning to `C=C(Br)CN(CCCF)c1c(-c2cccc(C(F)(F)F)c2Cl)c(F)nc2ncnn12` [Example 46], the logP is given as 3.73.

`CCOC(CN(CCCF)c1c(-c2ccc(C(F)(F)F)cc2F)c(Cl)nc2ncnn12)OCC` [Example 28] gave a lipophilicity (logP) of 4.04.

The molecule `CC(=O)CN(CCCF)c1c(-c2cc(SC(F)(F)F)ccc2Cl)c(Cl)nc2ncnn12` [Example 37] returned a lipophilicity (logP) of 3.42.

Regarding `CN(C)C(=O)CN(CCCF)c1c(-c2cc(SC(F)(F)F)ccc2Cl)c(Cl)nc2ncnn12` [Example 6], the logP is 3.14.

Consider `CN(C)C(=O)CN(CCCF)c1c(-c2cccc3c2OC(F)(F)O3)c(Cl)nc2ncnn12` [Example 8], for which the lipophilicity (logP) is listed as 2.52.

Turning to `C=C(Cl)CN(CCCF)c1c(-c2cccc3c2OC(F)(F)O3)c(Cl)nc2ncnn12` [Example 55], the logP worked out at 3.61.

On to `C=C(Br)CN(CCCF)c1c(-c2cc(C(F)(F)F)ccc2C(F)(F)F)c(F)nc2ncnn12` [Example 42], for which the logP amounted to 3.84.

`CCOC(CN(CCCF)c1c(-c2cc(SC(F)(F)F)ccc2Cl)c(Cl)nc2ncnn12)OCC` [Example 29] gave a log partition coefficient (logP) of 4.47.

Regarding `C=C(Cl)CN(CCCF)c1c(-c2cccc(C(F)(F)F)c2Cl)c(F)nc2ncnn12` [Example 54], the logP worked out at 3.66.

Molecule `COC(CN(CCCF)c1c(-c2c(F)cc(F)cc2C(F)(F)F)c(Cl)nc2ncnn12)OC` [Example 73] came in with a log partition coefficient (logP) of 3.22.

As to `C=C(Br)CN(CCCF)c1c(-c2c(Cl)c(F)cc(C(F)(F)F)c2Cl)c(Cl)nc2ncnn12` [Example 43], the logP is 4.27.

`CCOC(CN(CCCF)c1c(-c2ccc(C(F)(F)F)c(F)c2F)c(Cl)nc2ncnn12)OCC` [Example 32] had a lipophilicity (logP) of 4.16.

`CN(C)C(=O)CN(CCCF)c1c(-c2c(Cl)c(F)cc(C(F)(F)F)c2Cl)c(Cl)nc2ncnn12` [Example 4] came in with a lipophilicity (logP) of 3.01.

In the case of `COC(CN(CCCF)c1c(-c2ccc(C(F)(F)F)cc2F)c(Cl)nc2ncnn12)OC` [Example 20], the logP is recorded as 3.41.

In turn, `C=C(Cl)CN(CCCF)c1c(-c2ccc(C(F)(F)F)cc2F)c(Cl)nc2ncnn12` [Example 52] returned a logP of 3.77.

For the molecule `CCOC(CN(CCCF)c1c(-c2cccc3c2OC(F)(F)O3)c(Cl)nc2ncnn12)OCC` [Example 31], the logP stood at 3.81.

As to `CN(C)C(=O)CN(CCCF)c1c(-c2ccc(C(F)(F)F)cc2F)c(Cl)nc2ncnn12` [Example 5], the log partition coefficient (logP) came to 2.71.

Molecule `CN(C)C(=O)CN(CCCF)c1c(-c2cc(C(F)(F)F)ccc2C(F)(F)F)c(Cl)nc2ncnn12` [Example 3] yielded a logP of 2.89.

The molecule `CCOC(CN(CCCF)c1c(-c2c(Cl)c(F)cc(C(F)(F)F)c2Cl)c(Cl)nc2ncnn12)OCC` [Example 27] registered a logP of 4.45.

Regarding `COC(=O)CN(CCCF)c1c(-c2cc(SC(F)(F)F)ccc2Cl)c(Cl)nc2ncnn12` [Example 14], the logP was 3.57.

As to `CC(=O)CN(CCCF)c1c(-c2ccc(C(F)(F)F)cc2F)c(Cl)nc2ncnn12` [Example 36], the logP amounted to 3.01.

The molecule `C=C(Cl)CN(CCCF)c1c(-c2cc(SC(F)(F)F)ccc2Cl)c(Cl)nc2ncnn12` [Example 53] had a log partition coefficient (logP) of 4.27.

On to `CN(C)C(=O)CN(CCCF)c1c(-c2cccc(C(F)(F)F)c2Cl)c(Cl)nc2ncnn12` [Example 7], for which the lipophilicity (logP) is 2.71.

In the case of `CC(=O)CN(CCCF)c1c(-c2ccc(C(F)(F)F)c(F)c2F)c(Cl)nc2ncnn12` [Example 40], the logP worked out at 3.14.

The molecule `COC(CN(CCCF)c1c(-c2c(Cl)c(F)cc(C(F)(F)F)c2Cl)c(Cl)nc2ncnn12)OC` [Example 19] gave a logP of 3.82.

`COC(=O)CN(CCCF)c1c(-c2ccc(C(F)(F)F)c(F)c2F)c(Cl)nc2ncnn12` [Example 16] came in with a logP of 3.29.

`C=C(Cl)CN(CCCF)c1c(-c2cc(C(F)(F)F)ccc2C(F)(F)F)c(F)nc2ncnn12` [Example 50]: the logP is given as 3.77.

The same data set, now with this note: log P (S), stated in the preparation example.
In the case of `COC(=O)CN(CCCF)c1c(-c2cccc3c2OC(F)(F)O3)c(Cl)nc2ncnn12` [Example 1], the “log P (S)” value is listed as 2.93.

(Values after patent US20040097522A1, “Triazolopyrimidines” (priority 2000, published 2004).)
